Converted amounts (≈) assume the structure as drawn. “And” between values parts separate entries of the source, which are not always exact repeats. Equal entries are not always repeated.
Experiment: Kinetic solubility of compound by measuring concentration at pH 7.4 in saturated PBS buffer by UV LCMS/MS using calibration curves. The assay has been performed by Enamine biological services, Bienta Ltd.The protocol is publicly available: dx.doi.org/10.17504/protocols.io.j8nlk8y41l5r/v1
Type: physicochemical
Conditions: for solubility kinetic: PBS buffer; for Solubility (mean): buffer

| solubility kinetic | Solubility (mean) | SMILES |
| --- | --- | --- |
| 372 µM (≈ 139 µg/mL) | – | CC(C)[C@@H](Nc1ncnc2[nH]ccc12)c1ccc2c(c1)S(=O)(=O)CCO2 |
| ≥ 400 µM | – | CC(C)[C@@H](Nc1ncnc(N)c1Cl)c1ccc2c(c1)S(=O)(=O)CCC2 |
| 336 µM (≈ 148 µg/mL) | 316 µM (≈ 140 µg/mL) | CCNC(=O)c1cc2c(N[C@@H](c3ccc4c(c3)S(=O)(=O)CCC4)C(C)C)ncnc2[nH]1 |
| 374 µM (≈ 139 µg/mL) | – | CC(C)[C@H](Nc1ncnc2[nH]ccc12)c1ccc2c(c1)S(=O)(=O)CCC2 |
| 323 µM (≈ 164 µg/mL) | – | CNC(=O)Cn1cc(-c2cc3c(N[C@H](c4ccc5c(c4)S(=O)(=O)CCC5)C(C)C)ncnc3[nH]2)cn1 |
| 31 µM (≈ 16.3 µg/mL) | – | CC(C)[C@@H](Nc1ncnc2[nH]c(-c3cncc(S(C)(=O)=O)c3)cc12)c1ccc2c(c1)S(=O)(=O)CCC2 |
| 344 µM (≈ 152 µg/mL) | – | CCNC(=O)c1cc2c(N[C@@H](c3ccc4c(c3)S(=O)(=O)NCC4)C(C)C)ncnc2[nH]1 |
| 396 µM (≈ 197 µg/mL) | – | CC(C)[C@H](Nc1ncnc2[nH]c(C(=O)N[C@H]3CCN(C)C3)cc12)c1ccc2c(c1)S(=O)(=O)CCC2 |
| 105 µM (≈ 47.4 µg/mL) | – | CC(C)[C@@H](Nc1ncnc2[nH]c(-c3cnn(C)c3)cc12)c1ccc2c(c1)S(=O)(=O)NCC2 |
| 392 µM (≈ 195 µg/mL) | – | CC(C)[C@@H](Nc1ncnc2[nH]c(C(=O)N[C@H]3CCN(C)C3)cc12)c1ccc2c(c1)S(=O)(=O)CCC2 |
| 341 µM (≈ 168 µg/mL) | 335 µM (≈ 165 µg/mL) | CC(C)[C@@H](Nc1ncnc2[nH]c(-c3cnn(CC(N)=O)c3)cc12)c1ccc2c(c1)S(=O)(=O)CCC2 |
| 14 µM (≈ 6.81 µg/mL) | – | CC(C)[C@@H](Nc1ncnc2[nH]c(-c3ccc4cncn4c3)cc12)c1ccc2c(c1)S(=O)(=O)CCC2 |
| 392 µM (≈ 195 µg/mL) | – | CC(C)[C@@H](Nc1ncnc2[nH]c(C(=O)N[C@@H]3CCN(C)C3)cc12)c1ccc2c(c1)S(=O)(=O)CCC2 |
| 34 µM (≈ 16.2 µg/mL) | 26 µM (≈ 12.4 µg/mL) | CC(C)[C@@H](Nc1ncnc2[nH]c(-c3cnn(C)c3C#N)cc12)c1ccc2c(c1)S(=O)(=O)CCC2 |
| 289 µM (≈ 133 µg/mL) | – | CNC(=O)Cn1cc(-c2cc3c(N[C@@H](c4ccc5c(c4)OCCO5)C(C)C)ncnc3[nH]2)cn1 |
| 321 µM (≈ 154 µg/mL) | 345 µM (≈ 165 µg/mL) | CNCc1cc(-c2cc3c(N[C@@H](c4ccc5c(c4)S(=O)(=O)CCC5)C(C)C)ncnc3[nH]2)co1 |
| 19 µM (≈ 8.62 µg/mL) | – | CC(C)[C@H](Nc1ncnc2[nH]cc(C(=O)NC3CC3)c12)c1ccc2c(c1)S(=O)(=O)CCC2 |
| 358 µM (≈ 172 µg/mL) | – | CNCc1cc(-c2cc3c(N[C@H](c4ccc5c(c4)S(=O)(=O)CCC5)C(C)C)ncnc3[nH]2)co1 |
| 263 µM (≈ 104 µg/mL) | – | CCNC(=O)c1cc2c(N[C@H](c3ccc4c(c3)OCCO4)C(C)C)ncnc2[nH]1 |
| 337 µM (≈ 149 µg/mL) | – | CCNC(=O)c1cc2c(N[C@H](c3ccc4c(c3)S(=O)(=O)CCC4)C(C)C)ncnc2[nH]1 |
| 306 µM (≈ 155 µg/mL) | 294 µM (≈ 149 µg/mL) | CNC(=O)Cn1cc(-c2cc3c(N[C@@H](c4ccc5c(c4)S(=O)(=O)CCC5)C(C)C)ncnc3[nH]2)cn1 |

| solubility kinetic | Solubility (mean) | SMILES |
| --- | --- | --- |
| 366 µM (≈ 182 µg/mL) | – | CC(C)[C@H](Nc1ncnc2[nH]c(C(=O)N[C@@H]3CCN(C)C3)cc12)c1ccc2c(c1)S(=O)(=O)CCC2 |
| 17 µM (≈ 7.3 µg/mL) | 20 µM (≈ 8.59 µg/mL) | CC(C)[C@@H](Nc1ncnc2[nH]c(-c3cnn(C)c3C#N)cc12)c1ccc2c(c1)OCCO2 |
| 380 µM (≈ 145 µg/mL) | – | CNC(=O)c1cc2c(N[C@@H](c3ccc4c(c3)OCCO4)C(C)C)ncnc2[nH]1 |
| 94 µM (≈ 42.4 µg/mL) | 111 µM (≈ 50 µg/mL) | CC(C)[C@@H](Nc1ncnc2[nH]c(-c3cnn(C)c3)cc12)c1ccc2c(c1)S(=O)(=O)CCC2 |
| 374 µM (≈ 160 µg/mL) | – | CNC(=O)c1cc2c(N[C@H](c3ccc4c(c3)S(=O)(=O)CCC4)C(C)C)ncnc2[nH]1 |
| 13 µM (≈ 6.55 µg/mL) | – | CNC(=O)c1cccc(-c2cc3c(N[C@H](c4ccc5c(c4)S(=O)(=O)CCC5)C(C)C)ncnc3[nH]2)c1 |
| 338 µM (≈ 167 µg/mL) | – | CC(C)[C@H](Nc1ncnc2[nH]c(-c3cnn(CC(N)=O)c3)cc12)c1ccc2c(c1)S(=O)(=O)CCC2 |
| 111 µM (≈ 50 µg/mL) | – | CC(C)[C@H](Nc1ncnc2[nH]c(-c3cnn(C)c3)cc12)c1ccc2c(c1)S(=O)(=O)CCC2 |
| 328 µM (≈ 145 µg/mL) | – | CCNC(=O)c1cc2c(N[C@@H](c3ccc4c(c3)S(=O)(=O)CCO4)C(C)C)ncnc2[nH]1 |
| 15 µM (≈ 7.55 µg/mL) | – | CNC(=O)c1cccc(-c2cc3c(N[C@@H](c4ccc5c(c4)S(=O)(=O)CCC5)C(C)C)ncnc3[nH]2)c1 |
| 369 µM (≈ 158 µg/mL) | 397 µM (≈ 170 µg/mL) | CNC(=O)c1cc2c(N[C@@H](c3ccc4c(c3)S(=O)(=O)CCC4)C(C)C)ncnc2[nH]1 |
| 372 µM (≈ 179 µg/mL) | – | CNCc1cc(-c2cc3c(N[C@@H](c4ccc5c(c4)S(=O)(=O)NCC5)C(C)C)ncnc3[nH]2)co1 |
| 22 µM (≈ 10.5 µg/mL) | – | CC(C)[C@H](Nc1ncnc2[nH]c(-c3cnn(C)c3C#N)cc12)c1ccc2c(c1)S(=O)(=O)CCC2 |
| 63 µM (≈ 29.3 µg/mL) | – | Cc1nn(C)cc1-c1cc2c(N[C@@H](c3ccc4c(c3)S(=O)(=O)CCC4)C(C)C)ncnc2[nH]1 |
| 378 µM (≈ 178 µg/mL) | – | COCCNC(=O)c1c[nH]c2ncnc(N[C@@H](c3ccc4c(c3)S(=O)(=O)CCC4)C(C)C)c12 |
| 385 µM (≈ 143 µg/mL) | 386 µM (≈ 143 µg/mL) | CC(C)[C@@H](Nc1ncnc2[nH]ccc12)c1ccc2c(c1)S(=O)(=O)CCC2 |
| 65 µM (≈ 30.2 µg/mL) | – | Cc1nn(C)cc1-c1cc2c(N[C@H](c3ccc4c(c3)S(=O)(=O)CCC4)C(C)C)ncnc2[nH]1 |
| 372 µM (≈ 147 µg/mL) | 380 µM (≈ 150 µg/mL) | CNC(=O)c1cc2c(N[C@@H](c3ccc4c(c3)NC(=O)CO4)C(C)C)ncnc2[nH]1 |
| 6 µM (≈ 3.01 µg/mL) | – | CC(C)[C@@H](Nc1ncnc2[nH]c(-c3ccc4nnn(C)c4c3)cc12)c1ccc2c(c1)S(=O)(=O)CCC2 |
| 390 µM (≈ 167 µg/mL) | 204 µM (≈ 87.2 µg/mL) | CNC(=O)c1c[nH]c2ncnc(N[C@@H](c3ccc4c(c3)S(=O)(=O)CCC4)C(C)C)c12 |
| 257 µM (≈ 117 µg/mL) | 216 µM (≈ 98 µg/mL) | CC(C)[C@@H](Nc1ncnc2[nH]cc(C(=O)NC3CC3)c12)c1ccc2c(c1)S(=O)(=O)CCC2 |

The remaining lines, values behind:

| SMILES | solubility kinetic | Solubility (mean) |
| --- | --- | --- |
| CC(C)[C@@H](Nc1ncnc2[nH]cc(C(N)=O)c12)c1ccc2c(c1)OCCO2 | 375 µM (≈ 138 µg/mL) | – |
| CC(C)[C@H](Nc1ncnc2[nH]c(-c3cnn(CC(N)=O)c3)cc12)c1ccc2c(n1)OCCO2 | 377 µM (≈ 169 µg/mL) | – |
| CC(C)(C)[C@@H](Nc1ncnc2[nH]c(-c3cnn(CC(N)=O)c3)cc12)c1ccc2c(c1)OCCO2 | 195 µM (≈ 90 µg/mL) | 104 µM (≈ 48 µg/mL) |
| CC(C)[C@@H](Nc1ncnc2[nH]ccc12)c1ccc2c(c1)NC(=O)CO2 | 389 µM (≈ 131 µg/mL) | 374 µM (≈ 126 µg/mL) |
| CNC(=O)c1c[nH]c2ncnc(N[C@@H](c3ccc4c(c3)NC(=O)CO4)C(C)C)c12 | 28 µM (≈ 11 µg/mL) | – |
| CC(C)[C@H](Nc1ncnc2[nH]ccc12)c1ccc2c(c1)NC(=O)CO2 | 371 µM (≈ 125 µg/mL) | – |
| CC(C)[C@@H](Nc1ncnc2[nH]c(-c3cnn(CC(N)=O)c3)cc12)c1ccc2c(n1)OCCO2 | 385 µM (≈ 173 µg/mL) | 395 µM (≈ 177 µg/mL) |
| CC(C)[C@@H](Nc1ncnc2[nH]c(-c3cnn(CC(N)=O)c3)cc12)c1ccc2c(c1)OCCO2 | 345 µM (≈ 154 µg/mL) | 332 µM (≈ 149 µg/mL) |
| COc1ccc2c(c1)CCN(c1ncnc3[nH]ccc13)[C@H]2C(C)C | 14 µM (≈ 4.51 µg/mL) | – |
| CC(C)[C@H](Nc1ncnc2[nH]c(-c3cnn(C)c3C#N)cc12)c1ccc2c(c1)OCCO2 | 15 µM (≈ 6.44 µg/mL) | – |
| CC(C)(C)[C@H](Nc1ncnc2[nH]c(-c3cnn(CC(N)=O)c3)cc12)c1ccc2c(c1)OCCO2 | 89 µM (≈ 41.1 µg/mL) | – |
| COc1ccc([C@@H](CC(=O)O)NC(=O)c2ncnc3[nH]ccc23)cc1 | ≥ 400 µM | – |
| CC(C)[C@@H](Nc1ncnc2[nH]c(-c3cnn(C)c3C#N)cc12)c1ccc2c(n1)NC(=O)CO2 | 29 µM (≈ 12.9 µg/mL) | 28 µM (≈ 12.4 µg/mL) |
| CC(C)[C@H](Nc1ncnc2[nH]c(-c3cnn(C)c3C#N)cc12)c1ccc2c(c1)NC(=O)CO2 | 26 µM (≈ 11.5 µg/mL) | – |
| CC(C)[C@@H](Nc1ncnc2[nH]c(-c3cnn(CCC(N)=O)c3)cc12)c1ccc2c(c1)OCCO2 | 236 µM (≈ 109 µg/mL) | – |
| CC(C)[C@@H](Nc1ncnc2[nH]c(-c3cnn(CC(=O)N(C)C)c3)cc12)c1ccc2c(c1)OCCO2 | 210 µM (≈ 99.9 µg/mL) | 205 µM (≈ 97.5 µg/mL) |
| O=C(Nc1cccc2c(C(=O)N[C@@H]3c4ccccc4C[C@@H]3C(=O)O)c[nH]c12)NC1CC1 | ≥ 400 µM | – |

| SMILES | solubility kinetic | Solubility (mean) |
| --- | --- | --- |
| CNC(=O)c1c[nH]c2ncnc(N[C@@H](c3ccc4c(c3)OCCO4)C(C)C)c12 | 319 µM (≈ 122 µg/mL) | – |
| CC(C)[C@@H](Nc1ncnc2[nH]c(-c3cnn(C)c3C#N)cc12)c1ccc2c(n1)OCCO2 | 89 µM (≈ 38.3 µg/mL) | 60 µM and 50 µM |
| CC(C)[C@H](Nc1ncnc2[nH]c(-c3cnn(CC(=O)N(C)C)c3)cc12)c1ccc2c(c1)OCCO2 | 19 µM (≈ 9.04 µg/mL) | – |
| Cn1ncc(-c2cc3c(N[C@@H](c4ccc5c(n4)OCCO5)C(C)(C)C)ncnc3[nH]2)c1C#N | 25 µM (≈ 11.1 µg/mL) | 24 µM (≈ 10.7 µg/mL) |
| C[C@@H](C(=O)O)[C@@H](NC(=O)c1ncnc2[nH]ccc12)c1ccc(Br)cc1 | 386 µM (≈ 156 µg/mL) | – |
| Cn1ncc(-c2cc3c(N[C@@H](c4ccc5c(c4)OCCO5)C(C)(C)C)ncnc3[nH]2)c1C#N | 25 µM (≈ 11.1 µg/mL) | – |
| CC(C)[C@H](Nc1ncnc2[nH]c(-c3cnn(C)c3C#N)cc12)c1ccc2c(n1)NC(=O)CO2 | 28 µM (≈ 12.4 µg/mL) | – |
| COc1ccc([C@@H](NC(=O)c2[nH]cnc3nccc2-3)C(C)c2nnn[nH]2)cc1 (stereo not given in full) | ≥ 400 µM | – |
| CC(C)[C@H](Nc1ncnc2[nH]c(-c3cnn(C)c3C#N)cc12)c1ccc2c(n1)OCCO2 | 53 µM (≈ 22.8 µg/mL) | – |
| COc1ccc([C@H](Cc2nnn[nH]2)NC(=O)c2ncnc3[nH]ccc23)cc1 | 367 µM (≈ 134 µg/mL) | – |
| CC(C)[C@@H](Nc1ncnc2[nH]c(-c3cnn(CC(N)=O)c3)cc12)c1ccc2c(c1)NC(=O)CO2 | 25 µM (≈ 11.5 µg/mL) | – |
| CC(C)[C@H](Nc1ncnc2[nH]c(-c3cnn(CC(N)=O)c3)cc12)c1ccc2c(c1)OCCO2 | 280 µM (≈ 125 µg/mL) | – |
| O=C(Nc1ccccc1)Nc1ccc(C(=O)NC2c3cccc(O)c3CC2C(=O)O)cc1 (stereo not given) | 319 µM (≈ 138 µg/mL) | – |
| C[C@H](C(=O)O)[C@@H](NC(=O)c1ncnc2[nH]ccc12)c1ccc(Br)cc1 | 358 µM (≈ 144 µg/mL) | – |
| COc1ccc([C@@H](Cc2nnn[nH]2)NC(=O)c2ncnc3[nH]ccc23)cc1 | 395 µM (≈ 144 µg/mL) | – |
| CC(C)[C@H](CO)Nc1ncnc2[nH]ccc12 | ≥ 400 µM | – |
